Results taken from patent publication US9180107B2 (NANOPHARMACEUTICALS LLC, priority 2009, dated 2015).

How the values were obtained:
[1] = tested on: MDA-MB cells; test: Apoptosis by flow cytometry (FACS) in perfusion bellows culture; assay type: cell-based, human; conditions: for induced apoptosis compared to untreated control: day 2
Experimental: MDA-MB cells grown in perfusion bellows cell culture were treated with different concentrations of tetrac (10^−7 M to 10^−5 M) daily. Cells were harvested on the day indicated. Two million cells of each sample were prepared for flow cytometry. Flow cytometry was conducted as described in Example 1, infra.
Cells were harvested from flakes by trypsinization, washed with PBS and were resuspended in 200 μL PBS (1×10^5-1×10^6 cells). To quantify cellular DNA content, cells were permeabilized by fixation with 70% ethanol for 30 min at 4° C. Samples can be stored in 70% ethanol at −20° C. for several weeks prior to propidium iodide (PI) staining and flow cytometric analysis. If cellular DNA quantification was performed on the same day of cell harvest, the cells were washed after permeabilization in PBS and resuspended in 500 μL PBS. Then 2.5 μL RNase (DNase-free) was added to the cell suspension and incubation was carried out at 37° C. for 30 min. The cell suspension was chilled on ice to 4° C. and 50 μL propidium iodide (PI) was added to the cell suspension. Samples were then kept in the dark at room temperature for 30 min, after which they were subjected to flow cytometry. Samples were analyzed on FACSCalibur™ (Becton Dickinson), using CellQuest software to determine DNA content. Fluorescence-activated cell sorting (FACS) analysis was performed using Annexin V-FITC and PI. The relative percentages of cells in G1, S, or G2/M phase were calculated from FL-2 histograms using ModFit LT software.
Cells were harvested for FACS analysis 1-5 d after treatment with 10^−7 to 10^−5 M tetrac. […] (See FIG. 7). By day 2, tetrac, 10^−7M and 10^−6M, induced apoptosis by 2.5-fold as compared to untreated control. Similar results were obtained after 4 d of treatment of tetrac. […] (See FIG. 7).

[2] = tested on: MDA-MB cells; test: Pro-apoptotic gene expression by RT-PCR; assay type: cell-based, human; conditions: 10^−6 M
Experimental: MDA-MB cells were treated daily with 10^−6M of tetrac or nano-tetrac in bellows perfusion culture system. Cells were harvested after 3 days of treatment and total RNA was extracted. RT-PCR was conducted as described in Example 1, infra.
Total RNA was isolated as described previously. (See Lin et al., 2008. Carcinogenesis. 29:62-69). First strand complementary DNAs were synthesized from 1 μg of total RNA using oligo dT and AMV Reverse Transcriptase (Promega, Madison, Wis.). First-strand cDNA templates were amplified for GAPDH, c-fos, PIG3, c-Jun, and BAD mRNAs by polymerase chain reaction (PCR), using a hot start (Ampliwax, Perkin Elmer, Foster City, Calif.). Primer sequences were GAPDH [5′-[…]-3′ (forward) (SEQ ID NO: 1) and 5′-[…]-3′ (reverse) (SEQ ID NO:2)], c-fos [5′-[…]-3′(forward) (SEQ ID NO:3) and 5′-CAGTCA-[…]-3′ (reverse) (SEQ ID NO:4)], PIG3 [5′-[…]-[…]-3′(forward) (SEQ ID NO:5) and 5′-[…]-3′ (reverse) (SEQ ID NO:6)], c-jun [5′-[…]-3′ (forward) (SEQ ID NO:7) and 5′-[…]-3′ (reverse) (SEQ ID NO:8)] and BAD [5′-GTT-[…]-3′ (forward) (SEQ ID NO:9) and 5′-[…]-3′ (reverse) (SEQ ID NO:10)]. The PCR cycle was an initial step of 95° C. for 3 min, followed by 94° C. for 1 min, 55° C. for 1 min, 72° C. for 1 min, then 25 cycles and a final cycle of 72° C. for 8 min. […] Photographs were scanned under direct light for quantitation and illustration. […]

[3] = tested on: human embryonic kidney 293T cells; test: Proliferation of non-malignant cells; assay type: cell-based; conditions: 10^−6M daily for 7 days
Experimental: FIG. 9 is a series of graphs showing the comparison of nano-tetrac and tetrac on cell proliferation in non-malignant cells. CV-1 cells (FIG. 9A) and 293 T cells (FIG. 9B) were treated daily with 10^−6 M tetrac or nano-tetrac. Cells were harvested at the time points indicated. Total cell numbers taken after each treatment were used as an indicator for tetrac- or nano-tetrac-induced anti-proliferation.
In order to confirm that tetrac and nano-tetrac only suppress cell proliferation in cancer cells, tetrac and nano-tetrac were also examined for potential anti-proliferative effects on immortalized non-malignant cells, using monkey kidney epithelial CV-1 cells and human embryonic kidney 293T cells. The cells were treated daily with either 10^−6M tetrac or 10^−6M nano-tetrac for 7 days, then were harvested, counted and examined microscopically.

O=C(O)Cc1cc(I)c(Oc2cc(I)c(O)c(I)c2)c(I)c1 [tetrac, Tetraiodothyroacetic acid]
increase of apoptotic cells compared to untreated control cells ([1]; 10^−5 M, 1 d): 10 fold | induced apoptosis compared to untreated control ([1]; 10^−6M): 2.5 fold | induced apoptosis compared to untreated control ([1]; 10^−7M): 2.5 fold | expression of c-fos [2]: increased expression | expression of c-jun [2]: increased expression | change in cell numbers and morphology vs untreated control [3]: no significant change
